Here are results for two compounds from BindingDB's records for doi:10.1016/j.bmcl.2005.06.091 (Schering-Plough Research Institute, 2005).

Molecules are shown by their SMILES. Numbered stars: 1 amine (or outer) side, 2 acyl side, 3 side chain; on linkers, the order of the positions; unused ones are H or OH. Square brackets hold non-standard residues; d marks the D form. Peptide text beside a SMILES is read from it. * marks the point of attachment. Isobutyloxycarbonyl = CC(C)COC(=O)*; X1 = CCCC(N[*:1])C(=O)C(=O)[*:2] Where only a bound is given, the exact number is not on record here.

In this assay the target is Genome polyprotein (Hepatitis C virus genotype 1a (isolate H77), UniProt P27958). As to the kind of experiment: Continuous Spectrophotometric Assay. The note with it: pH 6.5; 30 °C. As to the method: Proteolytic cleavage of the ester linkage between the Nva (L-norvaline) and the chromophore (PAP) was monitored for change in absorbance at 370 nm. Initial velocities were determined using linear regression and kinetic constants were obtained by fitting the data to the Michaelis-Menten equation.
Sequence of Genome polyprotein (P27958 1027-1657 limits assumed): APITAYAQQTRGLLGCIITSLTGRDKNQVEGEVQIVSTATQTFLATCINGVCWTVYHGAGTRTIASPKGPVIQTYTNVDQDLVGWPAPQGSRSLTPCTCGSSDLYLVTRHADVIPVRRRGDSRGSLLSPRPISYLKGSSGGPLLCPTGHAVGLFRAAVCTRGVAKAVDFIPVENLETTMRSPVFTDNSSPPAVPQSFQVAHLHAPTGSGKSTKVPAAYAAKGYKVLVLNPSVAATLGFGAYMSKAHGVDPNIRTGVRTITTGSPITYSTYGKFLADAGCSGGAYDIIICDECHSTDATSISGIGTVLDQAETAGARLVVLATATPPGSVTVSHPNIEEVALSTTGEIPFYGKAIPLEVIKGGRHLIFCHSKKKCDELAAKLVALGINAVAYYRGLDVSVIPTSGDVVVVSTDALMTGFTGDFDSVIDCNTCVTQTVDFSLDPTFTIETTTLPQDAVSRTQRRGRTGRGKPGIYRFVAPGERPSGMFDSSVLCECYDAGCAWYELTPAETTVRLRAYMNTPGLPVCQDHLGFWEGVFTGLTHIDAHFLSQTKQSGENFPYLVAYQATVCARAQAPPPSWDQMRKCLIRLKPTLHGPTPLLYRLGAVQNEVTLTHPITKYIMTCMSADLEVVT

What is called Ki is a measure of affinity in units of concentration, obtained from inhibition or displacement. Low readings indicate a stronger hold on the target, high ones a looser hold on the target. Compound `CCCC(NC(=O)[C@@H]1CCCN1C(=O)[C@@H](NC(=O)OCC(C)C)C(C)C)C(=O)C(=O)NCC(=O)N[C@@H](CC(=O)O)C(=O)O` (stereo partly drawn) [1,4-disodium (2S)-2-[2-(3-{[(2S)-1-[(2S)-3-methyl-2-{[(2-methylpropoxy)carbonyl]amino}butanoyl]pyrrolidin-2-yl]formamido}-2-oxohexanamido)acetamido]butanedioate] (Isobutyloxycarbonyl-VP[X1]GD-OH) came in with an inhibition constant Ki of over 100 µM.
The figure for `CCCC(NC(=O)[C@@H]1CCCN1C(=O)[C@@H](NC(=O)OCC(C)C)C(C)C)C(=O)C(=O)NCC(=O)N[C@@H](CCC(=O)O)C(=O)O` (stereo partly drawn) [1,5-dilithio (2S)-2-[2-(3-{[(2S)-1-[(2S)-3-methyl-2-{[(2-methylpropoxy)carbonyl]amino}butanoyl]pyrrolidin-2-yl]formamido}-2-oxohexanamido)acetamido]pentanedioate] (Isobutyloxycarbonyl-VP[X1]GE-OH) is over 100 µM.
